Laboratory results as given in patent US5541232A, “Treatment of multidrug resistant diseases” (Chemex Pharmaceuticals, Inc., priority 1994, dated 1996).
Entries after “also recorded” stand apart in the source; their conditions may differ. Where two headings read alike, the source gives them in different places.

Key:
[1] = tested on: KB-3-1 human cervical carcinoma cells; experiment: efflux of VBL, KB-3-1; assay type: cell-based; conditions: 50 μM masoprocol
Description: (§1) A further test was conducted to show the effect of masoprocol on the efflux of VBL from cells. Cells were incubated with [^3 H]VBL with or without 50 μM masoprocol for 2 hours. The medium was then replaced with drug-free medium. After incubation for various times, the amount of VBL remaining in the cells was determined as described above. The data was presented in terms of the percentage of VBL remaining at various efflux times compared to VBL in cells with an efflux time of zero. In FIGS. 3a and 3b, efflux is expressed as pmol VBL. In FIGS. 3c and 3d, efflux is expressed as percentage of VBL levels at time zero.

SNB Glioblastoma cells = experiment: in vitro cytotoxicity anti tumor activity; assay type: cell-based; conditions: read-out: IC50
DLD-1 Colon cancer cells = experiment: in vitro cytotoxicity anti tumor activity; assay type: cell-based; conditions: Homo sapiens, DLD-1, 1 h; One Hour Pulse Treatment; read-out: IC50
[2] = tested on: KB-3-1 human cervical carcinoma cells; experiment: steady state accumulation of VBL, KB-3-1; assay type: cell-based
Description: (§2) At the desired time, the medium was aspirated and cells washed 5 times with ice cold PBS. Cells were digested overnight in 1N NaOH, at which time aliquots were used to determine protein content and radioactivity. The final concentration of VBL was 6 nM.
(§3) Cells were incubated for one hour with media containing either tritiated vinblastine (^3 H]VBL) alone or containing [^3 H]VBL with 50 μM masoprocol. Cells were then washed with ice cold PBS and the amount of VBL accumulated in cells was determined using a scintillation counter. In FIG. 1 each data point represents the mean of replicate experiments performed with duplicate cultures. Vertical bars are +/- S.D.

LOX-IMVI Melanoma cells = experiment: in vitro cytotoxicity anti tumor activity; assay type: cell-based; conditions: Homo sapiens, read-out: IC50
[3] = tested on: KB-3-1 human cervical carcinoma cells; experiment: modulation of VBL toxicity (colony formation), KB-3-1; assay type: cell-based; conditions: 25 μM masoprocol, 10 days, 37° C.
Description: Drug-sensitive KB-3-1 cells and the drug resistant subline (KB-GRC-1) were obtained from Dr. Igor Roninson (University of Illinois, College of Medicine, Chicago, Ill.). Cells were maintained in Dulbecco's modified Eagle's medium supplemented with 10% fetal bovine serum and 2 mM glutamine. The KB-GRC-1 cells were maintained in medium supplemented with 6 ng/ml colchicine.
To test the modulation of VBL toxicity by masoprocol, cells which had been seeded at 200-300 cells/dish were incubated in media containing various concentrations of VBL in the absence or presence of 25 μM masoprocol. After an incubation period of 10 days at 37° C. the cells were fixed and stained, and the number of colonies per dish were counted and expressed as a percent of the number of colonies formed in control conditions. 1.

CAK-1 Renal cancer cells = experiment: in vitro cytotoxicity anti tumor activity; assay type: cell-based; conditions: read-out: IC50
[4] = tested on: GRC-1 multidrug resistant human cervical carcinoma cells; experiment: steady state accumulation of VBL, GRC-1; assay type: cell-based
Description: as §2, §3

[5] = tested on: KB-3-1 human cervical carcinoma cells; experiment: modulation of cisplatin uptake; assay type: cell-based; conditions: one hour, 5 μM cisplatin; FIG. 5
Description: Subconfluent cultures of KB-3-1 cells were incubated with [^3 H]cisplatin (cis-DDP) in culture medium or in medium containing the indicated concentrations of masoprocol as presented in FIG. 5. After one hour incubation, the medium was aspirated and the cells washed 5 times with ice cold PBS. Cells were digested overnight in 1N NaOH, at which time aliquots were used to determine protein content and radioactivity. The final concentration of cisplatin was 5 μM. Each data point represents the mean of triplicate dishes from replicate experiments. The vertical bars are +/- standard deviations.

mammals = conditions: in vivo; cited from earlier work
[6] = tested on: GRC-1 multidrug resistant human cervical carcinoma cells; experiment: efflux of VBL, GRC-1; assay type: cell-based; conditions: 50 μM masoprocol
Description: as §1

[7] = tested on: human breast adenocarcinoma; conditions: cited from earlier work
WI-38 Lung Fibroblasts = experiment: in vitro cytotoxicity, normal cells; assay type: cell-based; conditions: Homo sapiens, WI-38, 1 h; One Hour Pulse Treatment; read-out: IC50
[8] = tested on: benign, paramalignant and malignant growth of the skin; conditions: in combination with ionic zinc; cited from earlier work
[9] = tested on: Lung (NCI-H23) cancer cells; experiment: in vitro cytotoxicity anti tumor activity; assay type: cell-based; conditions: Homo sapiens, read-out: IC50
human cancer patients = conditions: cited from earlier work
Lung (LX-1) cancer cells = experiment: in vitro cytotoxicity anti tumor activity; assay type: cell-based; conditions: 1 h; One Hour Pulse Treatment; read-out: IC50
P-glycoprotein = P-glycoprotein substrate; assay type: cell-based, human; conditions: inferred from colony formation in GRC-1 vs KB-3-1
Excerpt: To investigate whether masoprocol modulates multidrug resistance, a line of multidrug resistant (GRC-1) cells which were derived from parenteral drug sensitive human cervical carcinoma (KB-3-1) cells by transfection of the mdr1 genes were employed. Such transfection was by the method set forth in Choi, et al., Cell 53:519-529, 1989. These cell lines differ only with respect to the over-expression of P-glycoprotein. These tests were designed to examine whether masoprocol modulates tumor cell drug resistance by interfering with P-glycoprotein function. […] See, Regulation of initial vinblastine influx by P-glycoprotein, Shalinsky, et al., cited above.
First, cells which had been seeded at 200-300 cells/dish were incubated in media containing masoprocol or VBL. After an incubation period of 10 days at 37° C. the cells were fixed with methanol and stained with Giemsa, and the number of colonies per dish were counted and expressed as a percent of the number of colonies in control conditions. […] Parenthesis indicate standard deviations determined from replicate experiments.

[10] = Continuous Drug Exposure, observation at 70 hours
[11] = one hour, masoprocol with [3H]VBL

With `C[C@H](Cc1ccc(O)c(O)c1)[C@@H](C)Cc1ccc(O)c(O)c1` [Masoprocol, meso-1,4-bis (3,4-dihydroxyphenyl)-2,3-dimethylbutane] the “modulation of VBL efflux” value [1] was “does not modulate VBL efflux”, the “VBL levels at efflux time zero” value ([1]; 2 hours, FIG. 3b) was “higher in masoprocol-treated cells” and the “percent of VBL retained at various efflux time points” value ([1]; FIG. 3d) was “not affected by masoprocol treatment”. The “modulation of VBL efflux” value ([1]; listed as masoprocol) was “does not influence the rate of efflux of VBL”, the IC50 (SNB Glioblastoma cells; 1 h, One Hour Pulse Treatment) was 312 µM and the IC50 (SNB Glioblastoma cells; [10]) was 0.08 µM. The IC50 (DLD-1 Colon cancer cells) was 124 µM, the “steady state accumulation of VBL, compared with verapamil” value ([2]; 50 μM masoprocol) was “comparable to that of 10 μM verapamil” and the “steady state accumulation of VBL” value [2, 11] was “dose-dependent increase in the steady state accumulation of VBL; also recorded: increases the steady state accumulation of VBL”. For the same compound, the IC50 (LOX-IMVI Melanoma cells; 1 h, One Hour Pulse Treatment) was 38.4 µM, the IC50 (LOX-IMVI Melanoma cells; [10]) was 0.08 µM and the “effect on VBL cytotoxicity / colony formation” value [3] was “increase in the cytotoxicity of VBL; also recorded: increases the cytotoxic effect of VBL”. The IC50 (CAK-1 Renal cancer cells; 1 h, One Hour Pulse Treatment) was 211 µM, the IC50 (CAK-1 Renal cancer cells; [10]) was 53.4 µM and the “steady state accumulation of VBL, compared with verapamil” value ([4]; 50 μM masoprocol) was “comparable to that of 10 μM verapamil”. For the same compound, the “steady state accumulation of VBL” value [4, 11] was “dose-dependent increase in the steady state accumulation of VBL; also recorded: increases the steady state accumulation of VBL”, the “increase in uptake of cisplatin” value [5] was “about 25%” and the “retarding senescence or aging” value (mammals) was “having efficacy in retarding senescence or aging in mammals”. The “modulation of VBL efflux” value [6] was “does not modulate VBL efflux”, the “VBL levels at efflux time zero” value ([6]; 2 hours, FIG. 3a) was “higher in masoprocol-treated cells” and the “percent of VBL retained at various efflux time points” value ([6]; FIG. 3c) was “not affected by masoprocol treatment”. For the same compound, the “modulation of VBL efflux” value ([6]; listed as masoprocol) was “does not influence the rate of efflux of VBL”, the “effectiveness against human breast adenocarcinoma” value [7] was “particularly effective” and the IC50 (WI-38 Lung Fibroblasts) was 159 µM. For the same compound, the “effectiveness in treatment of growth of the skin” value [8] was “effective”, the IC50 ([9]; NCI-H23, 1 h, One Hour Pulse Treatment) was 172 µM and the IC50 ([9]; NCI-H23, Continuous Drug Exposure, observation at 70 hours) was 0.08 µM. The “stimulation of tumor cell growth” value (human cancer patients; in some cases) was “in some cases caused stimulation of tumor cell growth”, the “effectiveness as anticancer agent” value (human cancer patients; ingested tea made from creosote bush or pure NDGA) was “neither NDGA nor the tea were effective anticancer agents” and the IC50 (Lung (LX-1) cancer cells) was 18 µM. For the same compound, the P-glycoprotein substrate (P-glycoprotein) was “not a substrate for P-glycoprotein”.
